Experiment [1] deals with mexB (EC) strain. Kind of experiment: Efflux ability inhibition effect on drug efflux pump MexB (Test Examples 1 and 3): proliferation (OD595) of mexB (EC) strain with EM or LVFX at 1/4 MIC, EC75. It counts as cell-based, Escherichia coli. Conditions: for EC75, mexB (EC) strain, EM: combined with EM at 1/4 MIC; for EC75, mexB (EC) strain, LVFX: combined with LVFX at 1/4 MIC. On the procedure: The efflux ability inhibition effect of the test compound on the drug efflux pump was evaluated using the bacterial proliferative ability in the presence of EM or LVFX as an index.
EM is a macrolide antibacterial agent and is a drug that is discharged outside the bacteria by MexB and MexY LVFX is a quinolone antibacterial agent and is a drug that is discharged outside the bacteria by MexB and MexY In a case where the test compound has an efflux ability inhibitory ability against the drug efflux pump, the proliferation of bacteria is suppressed by the combined use of EM or LVFX and the test compound, as compared with the case where EM or LVFX is used alone.
A mutant strain (hereinafter, referred to as an “mexB (EC) strain”) obtained by transferring the genes of the main multidrug efflux system MexAB-OprM of Pseudomonas aeruginosa described in Nature, 2013, Vol. 500, pp. 102 to 106 as a plasmid into Escherichia coli strains in which the acrB and tolC genes of the multidrug efflux system AcrAB-TolC were deleted as described in Journal of Infection and Chemotherapy 2008, Vol. 14, pp. 23 to 29, and a gene transfer strain (hereinafter, referred to as an “mexY (EC) strain”) of another main multidrug efflux system MexXY-OprM of Pseudomonas aeruginosa were used for the evaluation of test compounds.
In the mexB (EC) strain, an expression level of MexB of the drug efflux pump is accelerated, and in the mexY (EC) strain, an expression level of MexY of the drug efflux pump is accelerated.
For culturing each Escherichia coli strain, a 96-well plate (amount of culture medium per well: 100 μL) was used and Luria-Bertani broth (LB) culture medium was used. The inoculation amount of the bacteria was set to 10^4 to 5 CFU/well.
The mexB (EC) strain and the mexY (EC) strain were cultured for 16 to 20 hours in a culture medium to which EM or LVFX and test compounds at various concentrations (0 to 800 μM) were added, and the proliferation of the bacterial strains was evaluated by optical turbidity at 595 nm (OD595). The concentration of the antibacterial agents (EM and LVFX) in the culture medium were each set to ¼ of the minimum inhibitory concentration (MIC) (hereinafter, referred to as ¼ MIC) of the single antibacterial agent.
The proliferation of bacteria in a case where the antibacterial agent was added at the concentration of ¼ MIC in a case where the test compound was not added was measured, and compared with the proliferation of bacteria in a case where the test compound was contained, and the lowest concentration of the test compound at which the proliferation was inhibited by 75% or more was defined as the drug efflux pump inhibitory ability of the test compound as 75% inhibitory effect concentration (EC75).
The drug efflux pump inhibitory ability of each test compound in a case of being used in combination with the antibacterial agent against the mexB (EC) strain and the mexY (EC) strain was evaluated as follows according to the value of EC75. • S: EC75≤[…] • A: 12.5 μM<EC75≤25 μM • B: 25 μM<EC75≤100 μM • C: […]
In the same manner as in Test Example 1, the efflux ability inhibition effect of the test compound on the drug efflux pump was evaluated using the bacterial proliferation ability in the presence of EM or LVFX as an index.

In experiment [2] the test system is mexB (PA) strain. Kind of experiment: Combinational effect with antibacterial agent against Pseudomonas aeruginosa (Test Examples 2 and 4): mexB (PA) strain with LVFX, TC or AZT at 1/4 MIC, EC99. It counts as cell-based. Conditions: mexB (PA) strain, Test Example 4; for EC99, combinational effect with AZT, mexB (PA): combined with AZT at 1/4 MIC; for EC99, combinational effect with LVFX, mexB (PA): combined with LVFX at 1/4 MIC; for EC99, combinational effect with TC, mexB (PA): combined with TC at 1/4 MIC. An outline of the steps:
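EC99 denotes the minimum test-compound concentration (range 0–800 μM) that suppresses ≥99% of growth, measured by OD595, when combined with ¼ MIC levofloxacin (LVFX), tetracycline or aztreonam. The efflux-pump mutant mexB (PA), expressing mainly MexAB-OprM, was inoculated at 10^4–5 CFU/well in CAMHB for 16–20 h.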

In experiment [3] the test system is S-3769 strain. The experiment in a line: Combinational effect with antibacterial agent against Pseudomonas aeruginosa (Test Examples 2 and 4): S-3769 strain with AMK or GM at 1/4 MIC, EC99. It counts as cell-based. As to conditions: S-3769 strain, Test Example 4; for EC99, combinational effect with AMK, S-3769 strain: combined with AMK at 1/4 MIC; for EC99, combinational effect with GM, S-3769 strain: combined with GM at 1/4 MIC. The method, boiled down: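 EC99, the lowest test-compound concentration inhibiting growth by ≥99% (OD595), was measured with aminoglycoside AMK or GM held at ¼ MIC. Strain S-3769, a MexY-overexpressing clinical isolate, was cultured in CAMHB at 10^4 to 5 CFU/well for 16–20 h; compound range 0–800 μM.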

Where [4] appears, read: Table 53, Test Example 3, same manner as Test Example 1.

Each structure is given as a SMILES string. Structures can show the parent of a compound that is named as a salt.

For `CCOc1cccc(F)c1CN1CCN(C(=O)[C@H](N)C2CCN(CCc3cc(Cl)ccc3-c3cn(C)nc3C)CC2)CC1` [Example 500, Hydrobromide of (R)-2-amino-2-(1-(5-chloro-2-(1,3-dimethyl-1H-pyrazol-4-yl)phenethyl)piperidin-4-yl)-1-(4-(2-ethoxy-6-fluorobenzyl)piperazin-1-yl)ethan-1-one], the “EC75, mexB (EC) strain, EM” value in experiment [1] (setting [4]) was “A (12.5 μM<EC75≤25 μM)”. Also, in experiment [2], the “EC99, combinational effect with AZT, mexB (PA)” value (“EC99 … with AZT, mexB (PA)” for short) is recorded as “C (100 μM<EC99)”; the “EC99, combinational effect with LVFX, mexB (PA)” value (from here on “EC99 … with LVFX, mexB (PA)”) is listed as “C (100 μM<EC99)”; the “EC99, combinational effect with TC, mexB (PA)” value (shortened to “EC99 … with TC, mexB (PA)”) was “C (100 μM<EC99)”. Besides, in experiment [3], the “EC99, combinational effect with AMK, S-3769 strain” value (from here on “EC99, combinational effect with AMK”) is “A (12.5 μM<EC99≤25 μM)” and the “EC99, combinational effect with GM, S-3769 strain” value (from here on “EC99, combinational effect with GM”) is listed as “A (12.5 μM<EC99≤25 μM)”.

As to `CCOc1cccnc1CN1CCN(C(=O)[C@H](N)C2CCN(CCc3cc(Cl)ccc3-c3ccccc3)CC2)CC1` [Example 508, Hydrobromide of (R)-2-amino-2-(1-(2-(4-chloro-[1,1-biphenyl]-2-yl)ethyl)piperidin-4-yl)-1-(4-((3-ethoxypyridin-2-yl)methyl)piperazin-1-yl)ethan-1-one], the “EC75, mexB (EC) strain, EM” value in experiment [1] (setting [4]) is given as “A (12.5 μM<EC75≤25 μM)”. Besides, in experiment [2], the “EC99 … with AZT, mexB (PA)” value is on record as “B (25 μM<EC99≤100 μM)”; the “EC99 … with LVFX, mexB (PA)” value is recorded as “C (100 μM<EC99)”; the “EC99 … with TC, mexB (PA)” value was “B (25 μM<EC99≤100 μM)”. Besides, in experiment [3], the “EC99, combinational effect with AMK” value is reported as “S (EC99≤12.5 μM)” and the “EC99, combinational effect with GM” value was “A (12.5 μM<EC99≤25 μM)”.

Consider `N[C@@H](C(=O)N1CCN(Cc2ncc3ccccn23)CC1)C1CCN(CCc2cc(Cl)ccc2-c2ccccc2)CC1` [Example 518, Hydrobromide of (R)-2-amino-2-(1-(2-(4-chloro-[1,1-biphenyl]-2-yl)ethyl)piperidin-4-yl)-1-(4-(imidazo[1,5-a]pyridin-3-ylmethyl)piperazin-1-yl)ethan-1-one], for which the “EC75, mexB (EC) strain, LVFX” value in experiment [1] (setting [4]) is reported as “A (12.5 μM<EC75≤25 μM)”. In addition, in experiment [2], the “EC99 … with AZT, mexB (PA)” value is given as “C (100 μM<EC99)”; the “EC99 … with LVFX, mexB (PA)” value was “C (100 μM<EC99)”; the “EC99 … with TC, mexB (PA)” value is given as “C (100 μM<EC99)”. Also, in experiment [3], the “EC99, combinational effect with AMK” value is “B (25 μM<EC99≤100 μM)” and the “EC99, combinational effect with GM” value is on record as “B (25 μM<EC99≤100 μM)”.

For `CCOc1cccc(F)c1CN1CCN(C(=O)[C@H](N)C2CCN(CCc3cc(-c4ccccc4)ccc3Cl)CC2)CC1` [Example 566, Hydrobromide of (R)-2-amino-2-(1-(2-(4-chloro-[1,1-biphenyl]-3-yl)ethyl)piperidin-4-yl)-1-(4-(2-ethoxy-6-fluorobenzyl)piperazin-1-yl)ethan-1-one], the “EC75, mexB (EC) strain, EM” value in experiment [1] (setting [4]) is on record as “A (12.5 μM<EC75≤25 μM)”. For the same molecule, in experiment [2], the “EC99 … with AZT, mexB (PA)” value was “B (25 μM<EC99≤100 μM)”; the “EC99 … with LVFX, mexB (PA)” value is reported as “B (25 μM<EC99≤100 μM)”; the “EC99 … with TC, mexB (PA)” value is given as “B (25 μM<EC99≤100 μM)”. In experiment [3], the “EC99, combinational effect with AMK” value is on record as “S (EC99≤12.5 μM)” and the “EC99, combinational effect with GM” value was “S (EC99≤12.5 μM)”.

`CSc1ccccc1CN1CCN(C(=O)[C@H](N)C2CCN(CCc3cc(Cl)ccc3-c3cccc(O)c3Cl)CC2)CC1.Cl` [Example 613, Hydrochloride of (R)-2-amino-2-(1-(2-(2′,4-dichloro-3′-hydroxy-[1,1-biphenyl]-2-yl)ethyl)piperidin-4-yl)-1-(4-(2-(methylthio)benzyl)piperazin-1-yl) ethan-1-one]: the “EC75, mexB (EC) strain, LVFX” value in experiment [1] (setting [4]) is recorded as “S (EC75≤12.5 M)”. In experiment [2], the “EC99 … with AZT, mexB (PA)” value is given as “S (EC99≤12.5 μM)”; the “EC99 … with LVFX, mexB (PA)” value is “S (EC99≤12.5 μM)”; the “EC99 … with TC, mexB (PA)” value was “S (EC99≤12.5 μM)”. Moreover, in experiment [3], the “EC99, combinational effect with AMK” value was “S (EC99≤12.5 μM)” and the “EC99, combinational effect with GM” value was “A (12.5 μM<EC99≤25 μM)”.

Regarding `C=C(Br)c1ccc(Cl)cc1CCN1CCC([C@@H](N)C(=O)N2CCN(Cc3c(F)cccc3OCC)CC2)CC1` [Example 545, Hydrobromide of (R)-2-amino-2-(1-(2-(1-bromovinyl)-5-chlorophenethyl)piperidin-4-yl)-1-(4-(2-ethoxy-6-fluorobenzyl)piperazin-1-yl)ethan-1-one], the “EC75, mexB (EC) strain, LVFX” value in experiment [1] (setting [4]) is on record as “A (12.5 μM<EC75≤25 μM)”. In experiment [2], the “EC99 … with AZT, mexB (PA)” value was “B (25 μM<EC99≤100 μM)”; the “EC99 … with LVFX, mexB (PA)” value is listed as “B (25 μM<EC99≤100 μM)”; the “EC99 … with TC, mexB (PA)” value was “B (25 μM<EC99≤100 μM)”. In experiment [3], the “EC99, combinational effect with AMK” value is given as “S (EC99≤12.5 μM)” and the “EC99, combinational effect with GM” value is on record as “S (EC99≤12.5 μM)”.

As for `CCOc1cccc(F)c1CN1CCN(C(=O)[C@H](N)C2CCN(CCc3cc(Cl)ccc3C#Cc3ccccc3)CC2)CC1` [Example 546, Hydrobromide of (R)-2-amino-2-(1-(5-chloro-2-(phenylethynyl)phenethyl)piperidin-4-yl)-1-(4-(2-ethoxy-6-fluorobenzyl)piperazin-1-yl)ethan-1-one], in experiment [1] (setting [4]), the “EC75, mexB (EC) strain, EM” value is “A (12.5 μM<EC75≤25 μM)” and the “EC75, mexB (EC) strain, LVFX” value is given as “A (12.5 μM<EC75≤25 μM)”. In addition, in experiment [2], the “EC99 … with AZT, mexB (PA)” value is “C (100 μM<EC99)”; the “EC99 … with LVFX, mexB (PA)” value is recorded as “C (100 μM<EC99)”; the “EC99 … with TC, mexB (PA)” value is reported as “A (12.5 μM<EC99≤25 μM)”. For the same molecule, in experiment [3], the “EC99, combinational effect with AMK” value is “S (EC99≤12.5 μM)” and the “EC99, combinational effect with GM” value was “S (EC99≤12.5 μM)”.

`Cl.N[C@@H](C(=O)N1CCN(Cc2c(O)cccc2Cl)CC1)C1CCN(CCc2cc(Cl)ccc2-c2ccccc2)CC1` [Example 574, Hydrochloride of (R)-2-amino-1-(4-(2-chloro-6-hydroxybenzyl)piperazin-1-yl)-2-(1-(2-(4-chloro-[1,1-biphenyl]-2-yl)ethyl)piperidin-4-yl) ethan-1-one]: the “EC75, mexB (EC) strain, LVFX” value in experiment [1] (setting [4]) is reported as “S (EC75≤12.5 M)”. Further, in experiment [2], the “EC99 … with AZT, mexB (PA)” value is listed as “A (12.5 μM<EC99≤25 μM)”; the “EC99 … with LVFX, mexB (PA)” value was “A (12.5 μM<EC99≤25 μM)”; the “EC99 … with TC, mexB (PA)” value is given as “A (12.5 μM<EC99≤25 μM)”. Moreover, in experiment [3], the “EC99, combinational effect with AMK” value was “A (12.5 μM<EC99≤25 μM)” and the “EC99, combinational effect with GM” value is on record as “B (25 μM<EC99≤100 μM)”.

For the molecule `O=C(CN1CCN(CCc2ccccc2)CC1)N1CCN(Cc2ccccc2F)CC1` [Example 259, hydrochloride of 1-(4-(2-fluorobenzyl)piperazin-1-yl)-2-(4-phenethylpiperazin-1-yl)ethan-1-one], the “EC75, mexB (EC) strain, EM” value in experiment [1] (Table 51, Test Example 1, 16 to 20 hours culture, OD595) was “A (12.5 μM<EC75≤25 μM)”.

Values taken from patent publication US20250326744A1, “PIPERAZINE DERIVATIVE OR SALT THEREOF, AND PHARMACEUTICAL COMPOSITION” (priority 2022, published 2025).
